Five molecules from patent US10858326B2, “Oxazoline pseudodimers, pharmaceutical compositions and the use thereof” (PURDUE PHARMA L.P., priority 2016, dated 2020) can be followed below.

The target of the assay is hTAAR1 (Homo sapiens (Human), UniProt Q96RJ0). The assay is described as follows: in vitro cAMP assay (agonist activity assay), HitHunter cAMP XS+, cAMP Hunter cell lines. Type of assay: cell-based. As to conditions: cAMP Hunter cells, n in brackets; for EC50: 30 min at 37° C., read-out: hTAAR1 EC50 (mean ± SEM(n)); for Emax: maximal cAMP level, read-out: hTAAR1 Emax (mean ± SEM(n)). Here is the method:
EC50 (the effective concentration of an agonist that produces half of the maximal effect) and Emax (the maximal cAMP level generated by the biding of a ligand) can be used as a measure of potency. […] An in vitro cAMP assay (agonist activity assay) is described below.
cAMP Hunter cell lines were expanded from freezer stocks according to standard procedures. Cells were seeded in a total volume of 20 μL into white walled, 384-well microplates and incubated at 37° C. overnight prior to testing. cAMP modulation was determined using the HitHunter™ cAMP XS+ assay (DiscoverX, Fremont, Calif.).
On the day of test, media was aspirated from cells and replaced with 15 μL HBSS/10 mM HEPES. A plate centrifuge was used for the media exchange, and the plate centrifuge was immediately stopped once its speed hit 270 RPM.
5 μL of 4× compound (prepared in HBSS/10 mM HEPES/4% DMSO) was added to cells and incubated at 37° C. for 30 minutes. Final assay vehicle concentration was 1%.
5 μL of cAMP XS+ Antibody reagent was then added, followed by 20 μL of ED/CL lysis mix. The mixture was incubated at room temperature for 60 minutes. 20 μL of EA reagent was added, and the mixture was incubated at room temperature for 120 minutes.
Microplates were read following signal generation with a PerkinElmer Envision™ instrument (Waltham, Mass.) for chemiluminescent signal detection. Compound activity was analyzed using CBIS Data Analysis Suite (ChemInnovation, CA).
(cAMP levels reflect the balance of adenylyl cyclase and phosphodiesterase activity.)

Usually EC50 stands for the midpoint of the concentration-response curve. Broadly, the Emax is the maximal effect, on the per cent scale that the assay sets.

A value given as a limit tells only on which side of the number the result lay.

Sequence of hTAAR1 (Q96RJ0 whole entry): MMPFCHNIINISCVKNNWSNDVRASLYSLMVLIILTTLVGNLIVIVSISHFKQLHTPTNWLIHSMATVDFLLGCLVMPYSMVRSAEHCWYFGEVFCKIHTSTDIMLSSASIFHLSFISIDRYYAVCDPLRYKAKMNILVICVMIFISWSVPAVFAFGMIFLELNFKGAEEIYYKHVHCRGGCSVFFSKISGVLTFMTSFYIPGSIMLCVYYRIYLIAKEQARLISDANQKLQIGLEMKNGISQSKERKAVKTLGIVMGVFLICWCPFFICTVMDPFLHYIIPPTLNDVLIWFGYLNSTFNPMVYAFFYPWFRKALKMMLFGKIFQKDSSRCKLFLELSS

Take `CCN(C[C@H]1COC(NC2=N[C@@H](c3ccc(Cl)c(Cl)c3)CO2)=N1)c1ccccc1` [Compound (24), (4S)-4-(3,4-dichlorophenyl)-N-[(4S)-4-{[ethyl(phenyl)amino]methyl}-4,5-dihydro-1,3-oxazol-2-yl]-4,5-dihydro-1,3-oxazol-2-amine]: the EC50 is above 10 µM and the Emax worked out at 34.3 ± 8.7%.

Regarding `Clc1ccc([C@H]2COC(NC3=N[C@@H](c4ccc(Cl)c(Cl)c4)CO3)=N2)cc1Cl` [Compound (8), (4S)-4-(3,4-dichlorophenyl)-N-[(4S)-4-(3,4-dichlorophenyl)-4,5-dihydro-1,3-oxazol-2-yl]-4,5-dihydro-1,3-oxazol-2-amine], the EC50 is above 10 µM.

Turning to `Cc1c(F)cccc1[C@H]1COC(NC2=N[C@@H](c3cccc(F)c3C)CO2)=N1` [Compound (27), (4S)-4-(3-fluoro-2-methylphenyl)-N-[(4S)-4-(3-fluoro-2-methylphenyl)-4,5-dihydro-1,3-oxazol-2-yl]-4,5-dihydro-1,3-oxazol-2-amine], the EC50 was 0.398 ± 0.0656 µM and the Emax came to 67.5 ± 3.4%.

As for `c1ccc([C@H]2COC(NC3=N[C@@H](c4ccccc4)CO3)=N2)cc1` [Compound (26), (4S)-4-phenyl-N-[(4S)-4-phenyl-4,5-dihydro-1,3-oxazol-2-yl]-4,5-dihydro-1,3-oxazol-2-amine], the EC50 was above 10 µM and the Emax came out at 3.6 ± 0.9%.

`CCN(C[C@H]1COC(NC2=N[C@@H](CN(CC)c3ccccc3)CO2)=N1)c1ccccc1` [Compound (25), (4S)-4-{[ethyl(phenyl)amino]methyl}-N-[(4S)-4-{[ethyl(phenyl)amino]methyl}-4,5-dihydro-1,3-oxazol-2-yl]-4,5-dihydro-1,3-oxazol-2-amine]: the EC50 stood at 4.07 ± 1.07 µM and the Emax was 60.7 ± 9.4%.
